{"source": "ChEMBL document CHEMBL5241090", "about": "“A comprehensive overview of β-carbolines and its derivatives as anticancer agents” (Eur J Med Chem, 2021)", "key": {"[1]": {"test_system": "L1210", "test": "Cytotoxicity against mouse L1210 cells", "type": "functional, cell-based"}, "[2]": {"test_system": "A2780", "test": "Antiproliferative activity against human A2780 cells", "type": "functional, cell-based"}, "[3]": {"test_system": "SK-OV-3", "test": "Antiproliferative activity against human SK-OV-3 cells", "type": "functional, cell-based"}, "[4]": {"test_system": "HepG2", "test": "Cytotoxicity against human HepG2 cells after 48 hrs incubation by SRB assay", "type": "functional, cell-based", "conditions": "HepG2, 48 h"}, "[5]": {"test_system": "Hep 3B2", "test": "Cytotoxicity against human Hep3B cells after 48 hrs incubation by SRB assay", "type": "functional, cell-based"}, "[6]": {"test_system": "MCF7", "test": "Cytotoxicity against human MCF7 cells", "type": "functional, cell-based"}, "[7]": {"test_system": "HCT-116", "test": "Cytotoxicity against human HCT-116 cells", "type": "functional, cell-based"}, "[8]": {"test_system": "HL-60", "test": "Cytotoxicity against human HL-60 cells", "type": "functional, cell-based", "conditions": "Homo sapiens, HL-60; read-out: IC50"}, "[9]": {"test_system": "KB", "test": "Cytotoxicity against human KB cells", "type": "functional, cell-based", "conditions": "Homo sapiens, KB; read-out: IC50"}, "[10]": {"test_system": "L5178Y", "test": "Cytotoxicity against mouse L5178Y cells incubated 72 hrs", "type": "functional, cell-based"}, "[11]": {"test_system": "CNE-2", "test": "Cytotoxicity against human CNE-2 cells incubated for 48 hrs by MTT assay", "type": "functional, cell-based", "conditions": "CNE-2, 48 h"}, "[12]": {"test_system": "MCF7", "test": "Cytotoxicity against human MCF7 cells incubated for 48 hrs by neutral red dye based assay", "type": "functional, cell-based", "conditions": "MCF7, 48 h"}, "[13]": {"test_system": "HCT-116", "test": "Cytotoxicity against human HCT-116 cells incubated for 48 hrs by neutral red dye based assay", "type": "functional, cell-based", "conditions": "HCT-116, 48 h"}, "[14]": {"test_system": "A549", "test": "Cytotoxicity against human A549 cells incubated for 48 hrs by neutral red dye based assay", "type": "functional, cell-based", "conditions": "A549, 48 h"}, "[15]": {"test": "Cytotoxicity against mouse P388 cells", "type": "functional, cell-based"}, "[16]": {"test_system": "A549", "test": "Cytotoxicity against human A549 cells", "type": "functional, cell-based"}, "[17]": {"test_system": "NCI-H1299", "test": "Cytotoxicity against human NCI-H1299 cells", "type": "functional, cell-based"}, "[18]": {"target": "T1, DNA topoisomerase 1 (Homo sapiens, UniProt P11387)", "T1 sequence (P11387 whole entry)": "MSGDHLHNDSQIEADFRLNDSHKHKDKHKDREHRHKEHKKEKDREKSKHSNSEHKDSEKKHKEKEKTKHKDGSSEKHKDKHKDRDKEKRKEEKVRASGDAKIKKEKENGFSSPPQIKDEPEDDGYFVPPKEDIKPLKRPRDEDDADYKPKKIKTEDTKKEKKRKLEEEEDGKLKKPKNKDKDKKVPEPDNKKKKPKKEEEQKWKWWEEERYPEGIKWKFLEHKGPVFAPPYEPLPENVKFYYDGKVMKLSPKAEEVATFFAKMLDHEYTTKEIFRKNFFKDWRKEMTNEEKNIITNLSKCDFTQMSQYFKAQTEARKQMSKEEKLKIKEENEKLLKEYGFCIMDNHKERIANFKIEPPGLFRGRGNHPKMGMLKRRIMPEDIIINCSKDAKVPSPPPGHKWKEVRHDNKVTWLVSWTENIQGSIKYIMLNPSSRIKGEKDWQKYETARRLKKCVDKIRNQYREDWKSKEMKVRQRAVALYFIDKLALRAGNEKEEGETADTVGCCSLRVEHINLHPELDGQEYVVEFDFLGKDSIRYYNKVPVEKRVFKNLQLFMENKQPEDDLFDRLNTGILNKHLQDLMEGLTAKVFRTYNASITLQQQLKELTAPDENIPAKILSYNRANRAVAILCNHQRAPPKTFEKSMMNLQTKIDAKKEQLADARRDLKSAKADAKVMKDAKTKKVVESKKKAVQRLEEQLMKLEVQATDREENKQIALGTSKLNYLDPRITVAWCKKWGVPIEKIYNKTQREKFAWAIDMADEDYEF", "test": "Inhibition of Topoisomerase 1 (unknown origin)"}}, "data": [{"smiles": "O[C@H]1[C@H]2[C@@H]3c4[nH]c5ccccc5c4CCN3CN3CCCC/C=C\\CC[C@@]45CN(CCCC/C=C\\CC[C@@]1(O)[C@H]34)CC[C@@H]25", "values": [{"measurement": "IC50", "setting": "[1]", "value": 4.4, "unit": "µg/mL"}]}, {"smiles": "COc1nccc2c1[nH]c1ccccc12", "values": [{"measurement": "IC50", "setting": "[2]", "value": 9.72, "unit": "µg/mL"}, {"measurement": "IC50", "setting": "[3]", "value": 22.3, "unit": "µg/mL"}]}, {"smiles": "C=Cc1ncc(OC)c2c1[nH]c1c(O)cccc12", "values": [{"measurement": "IC50", "setting": "[2]", "value": 8.47, "unit": "µM"}, {"measurement": "IC50", "setting": "[3]", "value": 16.3, "unit": "µM"}]}, {"smiles": "O[C@]12C=C(C3NCCc4c3[nH]c3ccccc43)[C@@H]3CCN(CCCC/C=C\\CC1)C[C@@]31CC/C=C\\CCCCN[C@H]12", "note": "(stereo partly specified)", "values": [{"measurement": "IC50", "setting": "[1]", "value": 1.3, "unit": "µg/mL"}]}, {"smiles": "COc1cnc(C(=O)[C@@H](Cc2nccc3c2[nH]c2ccccc23)OC)c2[nH]c3ccccc3c12", "values": [{"measurement": "IC50", "setting": "[4]", "value": 33.9, "unit": "µM"}, {"measurement": "IC50", "setting": "[5]", "value": "> 50", "unit": "µM"}]}, {"smiles": "CC(C=O)CNc1nccc(-c2nccc3c2[nH]c2ccccc23)n1", "note": "(stereo unspecified)", "values": [{"measurement": "IC50", "setting": "[6]", "value": 6.05, "unit": "µM"}, {"measurement": "IC50", "setting": "[7]", "value": 3.35, "unit": "µM"}]}, {"smiles": "COc1cc(-c2nc(C(=O)N[C@@H](Cc3c[nH]c4ccccc34)C(=O)N[C@@H](Cc3c[nH]c4ccccc34)C(=O)N[C@@H](CCSC)C(=O)OCc3ccccc3)cc3c2[nH]c2ccccc23)ccc1O", "values": [{"measurement": "IC50", "setting": "[8]", "value": 16, "unit": "µM"}]}, {"smiles": "Oc1ccc2[nH]c3c(C4=C[C@@]5(O)CC/C=C\\CCCCN6CC[C@@H]4[C@@]4(C6)CC67CCC(CCCN6[C@H]45)O7)nccc3c2c1", "values": [{"measurement": "IC50", "setting": "[9]", "value": 7.9, "unit": "µg/mL"}]}, {"smiles": "Oc1ccc2[nH]c3c(C4=C[C@@]5(O)CC/C=C\\CCCCN6CC[C@@H]4[C@]4(CC7/C=C\\CCCCN7[C@H]45)C6)nccc3c2c1", "note": "(stereo partly specified)", "values": [{"measurement": "IC50", "setting": "[9]", "value": 7.3, "unit": "µg/mL"}]}, {"smiles": "COc1cnc(C(=O)[C@@H](CC(=O)c2nccc3c2[nH]c2ccccc23)OC)c2[nH]c3ccccc3c12", "values": [{"measurement": "IC50", "setting": "[4]", "value": "> 50", "unit": "µM"}, {"measurement": "IC50", "setting": "[5]", "value": 31.4, "unit": "µM"}]}, {"smiles": "O[C@]12C=C(c3nccc4c3[nH]c3ccccc34)[C@@H]3CCN(CCCC/C=C\\CC1)C[C@@]31CC34CCC(CCCN3[C@H]12)O4", "values": [{"measurement": "EC50", "setting": "[10]; time 72 hrs, read-out: ED50 (the source's name)", "value": 1.8, "unit": "µg/mL"}]}, {"smiles": "COc1ccc2c(c1)NC1C2CCN2C(=O)[C@]34C5Nc6cc(OC)ccc6C5CCN3[C@]12C4(C)C", "note": "(stereo partly specified)", "values": [{"measurement": "IC50", "setting": "[8]", "value": 5.8, "unit": "µM"}]}, {"smiles": "CNc1nccc(-c2nccc3c2[nH]c2ccccc23)n1", "values": [{"measurement": "IC50", "setting": "[6]", "value": 4.33, "unit": "µM"}, {"measurement": "IC50", "setting": "[7]", "value": 2.9, "unit": "µM"}]}, {"smiles": "COc1ccc2c3c([nH]c2c1)-c1c(C(=O)c2ncc4ccccc4n2)ccn1CC3", "values": [{"measurement": "IC50", "setting": "[8]", "value": 13.6, "unit": "µM"}]}, {"smiles": "COc1cnc(C(=O)[C@H](CC(=O)c2nccc3c2[nH]c2ccccc23)OC)c2[nH]c3ccccc3c12", "values": [{"measurement": "IC50", "setting": "[4]", "value": 43.9, "unit": "µM"}, {"measurement": "IC50", "setting": "[5]", "value": 18.6, "unit": "µM"}]}, {"smiles": "COc1cnc(C(=O)[C@H](Cc2nccc3c2[nH]c2ccccc23)OC)c2[nH]c3ccccc3c12", "values": [{"measurement": "IC50", "setting": "[4]", "value": 27.5, "unit": "µM"}, {"measurement": "IC50", "setting": "[5]", "value": 46.2, "unit": "µM"}]}, {"smiles": "C=Cc1ncc(OC)c2c1[nH]c1ccccc12", "values": [{"measurement": "IC50", "setting": "[2]", "value": 4.77, "unit": "µg/mL"}, {"measurement": "IC50", "setting": "[3]", "value": 15.7, "unit": "µg/mL"}]}, {"smiles": "COc1c(OC)c2nccc3c4ccccc4n(c1=O)c23", "note": "[4,5-DIMETHOXYCANTHIN-6-ONE]", "values": [{"measurement": "IC50", "setting": "[11]", "value": 9.86, "unit": "µg/mL"}]}, {"smiles": "Nc1nccc(-c2nccc3c2[nH]c2ccccc23)n1", "note": "[ANNOMONTINE]", "values": [{"measurement": "IC50", "setting": "[12]", "value": 1.21, "unit": "µg/mL"}, {"measurement": "IC50", "setting": "[13]", "value": 0.42, "unit": "µg/mL"}, {"measurement": "IC50", "setting": "[14]", "value": 1.09, "unit": "µg/mL"}]}, {"smiles": "COc1cccc2c1C(=O)c1c(O)c3c(c(O)c1C2=O)C[C@@](O)(C(=O)CO)C[C@@H]3O[C@H]1C[C@H](N)[C@H](O)[C@H](C)O1", "note": "[DOXORUBICIN]", "values": [{"measurement": "IC50", "setting": "[7]", "value": 0.39, "unit": "µM"}]}, {"smiles": "CC(C)CC(N)c1nccc2c1[nH]c1cc(Br)ccc12", "note": "(stereo unspecified) [EUDISTALBIN A]", "values": [{"measurement": "IC50", "setting": "[9]", "value": 3.2, "unit": "µg/mL"}]}, {"smiles": "CN[C@H](CSC)c1nccc2c1[nH]c1ccc(O)c(Br)c12", "note": "[EUDISTOMIDIN C]", "values": [{"measurement": "IC50", "setting": "[10]; 72 h", "value": 0.42, "unit": "µg/mL"}]}, {"smiles": "O[C@]12C=C(c3nccc4c3[nH]c3ccccc34)[C@@H]3CCN(CCCC/C=C\\CC1)C[C@@]31C[C@@H]3/C=C\\CCCCN3[C@H]12", "note": "[MANZAMINE A]", "values": [{"measurement": "IC50", "setting": "[15]", "value": 0.07, "unit": "µg/mL"}]}, {"smiles": "C1=C\\CC[C@]23CN4CCCC/C=C\\CC[C@@]5(O[C@H]5[C@@H](c5nccc6c5[nH]c5ccccc56)[C@@H]2CC4)[C@@H]3NCCCC/1", "note": "[MANZAMINE B]", "values": [{"measurement": "IC50", "setting": "[15]", "value": 6, "unit": "µg/mL"}]}, {"smiles": "C1=C\\CCCCN(CCc2nccc3c2[nH]c2ccccc23)CCCC/1", "note": "[MANZAMINE C]", "values": [{"measurement": "IC50", "setting": "[15]", "value": 3, "unit": "µg/mL"}]}, {"smiles": "O[C@]12C=C(c3nccc4c3[nH]c3ccccc34)[C@@H]3CCN(CCCC/C=C\\CC1)C[C@@]31CC/C=C\\CCCCN[C@H]12", "note": "[MANZAMINE J]", "values": [{"measurement": "IC50", "setting": "[1]", "value": 2.6, "unit": "µg/mL"}]}, {"smiles": "Oc1ccc2[nH]c3c(C4=C[C@@]5(O)CC/C=C\\CCCCN6CC[C@@H]4[C@]4(C[C@@H]7/C=C\\CCCCN7[C@H]45)C6)nccc3c2c1", "note": "[MANZAMINE Y]", "values": [{"measurement": "IC50", "setting": "[1]", "value": 1.5, "unit": "µg/mL"}, {"measurement": "IC50", "setting": "[9]", "value": 2.5, "unit": "µg/mL"}]}, {"smiles": "COc1ccc(CCNC(=O)c2cc3c([nH]c4ccccc43)c(C(C)=O)n2)cc1", "note": "[MARINACARBOLINE A]", "values": [{"measurement": "IC50", "setting": "[16]", "value": 24.4, "unit": "µM"}, {"measurement": "IC50", "setting": "[7]", "value": 24.4, "unit": "µM"}, {"measurement": "IC50", "setting": "[17]", "value": 24.4, "unit": "µM"}]}, {"smiles": "CC(=O)c1nc(C(=O)NCCc2c[nH]c3ccccc23)cc2c1[nH]c1ccccc12", "note": "[MARINACARBOLINE D]", "values": [{"measurement": "IC50", "setting": "[16]", "value": 15, "unit": "µM"}, {"measurement": "IC50", "setting": "[7]", "value": 15, "unit": "µM"}, {"measurement": "IC50", "setting": "[17]", "value": 15, "unit": "µM"}]}, {"smiles": "c1ccc2c(c1)[nH]c1cnccc12", "note": "[NORHARMANE]", "values": [{"measurement": "IC50", "setting": "[18]", "value": 31, "unit": "µM"}]}]}
